Laboratory results reported in patent USRE40086E1, “Method for treating bacterial infection with novel 7-substituted-9-substituted amino 6-demethyl-6-deoxytetracyclines” (Wyeth Holdings Corporation, priority 1991, dated 2008).

Experiments:
Format in all cases: cell-based
[1] = tested on: S. aureus UBMS 88-5 (tetM); assay: MIC, agar dilution; details: S. aureus UBMS 88-5 TetM; Table IA; unit assumed
[2] = tested on: S. aureus UBMS 88-4 (Sensitive); assay: MIC, agar dilution; details: S. aureus UBMS 88-4; Table IA; unit assumed
[3] = tested on: S. aureus UBMS 90-1 (tetM); assay: MIC, agar dilution; details: S. aureus UBMS 90-1 TetM; Table IA; unit assumed
[4] = tested on: S. aureus UBMS 90-2 (tetM); assay: MIC, agar dilution; details: S. aureus UBMS 90-2 TetM; Table IA; unit assumed
[5] = tested on: S. aureus UBMS 90-3 (Sensitive); assay: MIC, agar dilution; details: S. aureus UBMS 90-3; Table IA; unit assumed
[6] = tested on: S. aureus UBMS 88-7 (tetK); assay: MIC, agar dilution; details: S. aureus UBMS 88-7 TetK; Table IA; unit assumed
[7] = tested on: S. aureus IVES 2943 (meth. resistant); assay: MIC, agar dilution; details: S. aureus IVES 2943; Table IA; unit assumed
[8] = tested on: S. aureus IVES 1983 (meth. resistant); assay: MIC, agar dilution; details: S. aureus IVES 1983; Table IA; unit assumed
[9] = tested on: S. aureus ATCC 29213 (Sensitive); assay: MIC, agar dilution; details: S. aureus ATCC 29213; Table IA; unit assumed
[10] = tested on: S. aureus Smith (Sensitive); assay: MIC, agar dilution; details: S. aureus SMITH (MP); Table IA; unit assumed
[11] = tested on: S. haemolyticus AVAH 88-3; assay: MIC, agar dilution; details: S. hemolyticus AVHAH 88-3; Table IA; unit assumed
E. faecalis 12201 = assay: MIC, agar dilution; details: Enterococcus 12201; Table IA; unit assumed
E. faecalis ATCC 29212 = assay: MIC, agar dilution; details: E. faecalis ATCC 29212; Table IA; unit assumed
E. coli UBMS 88-1 (tetB) = assay: MIC, agar dilution; details: E. coli UBMS 88-1 TetB; Table IA; unit assumed
E. coli UBMS 89-1 (tetM) = assay: MIC, agar dilution; details: E. coli UBMS 89-1 TetM; Table IA; unit assumed
[12] = tested on: E. coli UBMS 89-2 (Sensitive); assay: MIC, agar dilution; details: E. coli UBMS 89-2 Tet Sens.; Table IA; unit assumed
E. coli ATCC 25922 = assay: MIC, agar dilution; details: E. coli ATCC 25922; Table IA; unit assumed
E. coli J3272 Tet sens. = assay: MIC, agar dilution (Table IA); details: unit assumed
E. coli MC4100 TetB = assay: MIC, agar dilution (Table IA); details: unit assumed
E. coli PRP1 TetA = assay: MIC, agar dilution (Table IA); details: unit assumed
E. coli J3272 TetC = assay: MIC, agar dilution (Table IA); details: unit assumed
E. coli J2175 = assay: MIC, agar dilution (Table IA); details: unit assumed
E. coli BAJ9003 = assay: MIC, agar dilution (Table IA); details: unit assumed
E. coli UBMS 90-5 = assay: MIC, agar dilution (Table IA); details: unit assumed
E. coli #311 (MP) = assay: MIC, agar dilution (Table IA); details: unit assumed
E. coli J3272 TetD = assay: MIC, agar dilution (Table IA); details: unit assumed
S. mariescens FDOR 8733 = assay: MIC, agar dilution (Table IA); details: unit assumed
[13] = tested on: X. maltophilia NEMC 87210; assay: MIC, agar dilution (Table IA); details: unit assumed
[14] = tested on: Ps. acruginosa ATCC 27853; assay: MIC, agar dilution (Table IA); details: unit assumed
S. aureus NEMC 8769/89-4 = assay: MIC, agar dilution (Table IA); details: unit assumed
S. aureus ROSE (MP) = assay: MIC, agar dilution (Table IA); details: unit assumed
E. coli UBMS 90-4 (tetM) = assay: MIC, agar dilution; details: E. coli UBMS 90-4 TetM; Table IA; unit assumed

Compound | Antibacterial activity (MIC) [1] | Antibacterial activity (MIC) [2] | Antibacterial activity (MIC) [3] | Antibacterial activity (MIC) [4] | Antibacterial activity (MIC) [5] | Antibacterial activity (MIC) [6] | Antibacterial activity (MIC) [7] | Antibacterial activity (MIC) [8] | Antibacterial activity (MIC) [9] | Antibacterial activity (MIC) [10] | Antibacterial activity (MIC) [11] | Antibacterial activity (MIC) (E. faecalis 12201) | Antibacterial activity (MIC) (E. faecalis ATCC 29212) | Antibacterial activity (MIC) (E. coli UBMS 88-1 (tetB)) | Antibacterial activity (MIC) (E. coli UBMS 89-1 (tetM)) | Antibacterial activity (MIC) [12] | Antibacterial activity (MIC) (E. coli ATCC 25922) | Antibacterial activity (MIC) (E. coli J3272 Tet sens.) | Antibacterial activity (MIC) (E. coli MC4100 TetB) | Antibacterial activity (MIC) (E. coli PRP1 TetA) | other results
CN(C)c1cc(NC(=O)CBr)c(O)c2c1CC1CC3[C@H](N(C)C)C(O)=C(C(N)=O)C(=O)[C@@]3(O)C(O)=C1C2=O.Cl.Cl (stereo partly drawn) [III, [4S-(4alpha,12aalpha)]-9-[(Bromoacetyl)amino)-4,7-bis(dimethylamino)-1,4,4a,5,5a,6,11,12a-octahydro-3,10,12,12a-tetrahydroxy-1,11-dioxo-2-naphthacenecarboxamide dihydrochloride] | 1 µg/mL | 0.5 µg/mL | 1 µg/mL | 0.5 µg/mL | 0.5 µg/mL | 2 µg/mL | 4 µg/mL | 4 µg/mL | 0.5 µg/mL | 0.5 µg/mL | 2 µg/mL | 1 µg/mL | 0.5 µg/mL | > 32 µg/mL | 4 µg/mL | 32 µg/mL | 16 µg/mL | 16 µg/mL | > 32 µg/mL | > 32 µg/mL | Antibacterial activity (MIC) (E. coli J3272 TetC): > 32 µg/mL; Antibacterial activity (MIC) (E. coli J2175): 32 µg/mL; Antibacterial activity (MIC) (E. coli BAJ9003): 0.25 µg/mL; Antibacterial activity (MIC) (E. coli UBMS 90-5): 16 µg/mL; Antibacterial activity (MIC) (E. coli #311 (MP)): 8 µg/mL; Antibacterial activity (MIC) (E. coli J3272 TetD): 32 µg/mL; Antibacterial activity (MIC) (S. mariescens FDOR 8733): > 32 µg/mL; Antibacterial activity (MIC) [13]: 4 µg/mL; Antibacterial activity (MIC) [14]: > 32 µg/mL; Antibacterial activity (MIC) (S. aureus NEMC 8769/89-4): 0.12 µg/mL; Antibacterial activity (MIC) (S. aureus ROSE (MP)): 8 µg/mL
Br.CC(Br)C(=O)Nc1cc(N(C)C)c2c(c1O)C(=O)C1=C(O)C3(O)C(=O)C(C(N)=O)=C(O)C(N(C)C)C3CC1C2 (stereo not drawn) [JJJ] | 8 µg/mL | 8 µg/mL | 16 µg/mL | 8 µg/mL | 2 µg/mL | 16 µg/mL | 32 µg/mL | 32 µg/mL | 4 µg/mL | 4 µg/mL | 16 µg/mL | 16 µg/mL | 16 µg/mL | > 32 µg/mL | 32 µg/mL | > 32 µg/mL | > 32 µg/mL | > 32 µg/mL | > 32 µg/mL | > 32 µg/mL | Antibacterial activity (MIC) (E. coli UBMS 90-4 (tetM)): > 32 µg/mL; Antibacterial activity (MIC) (E. coli J3272 TetC): > 32 µg/mL; Antibacterial activity (MIC) (E. coli J2175): > 32 µg/mL; Antibacterial activity (MIC) (E. coli BAJ9003): 4 µg/mL; Antibacterial activity (MIC) (E. coli UBMS 90-5): > 32 µg/mL; Antibacterial activity (MIC) (E. coli #311 (MP)): > 32 µg/mL; Antibacterial activity (MIC) (E. coli J3272 TetD): > 32 µg/mL; Antibacterial activity (MIC) (S. mariescens FDOR 8733): > 32 µg/mL; Antibacterial activity (MIC) [13]: 16 µg/mL; Antibacterial activity (MIC) [14]: > 32 µg/mL; Antibacterial activity (MIC) (S. aureus NEMC 8769/89-4): 4 µg/mL; Antibacterial activity (MIC) (S. aureus ROSE (MP)): > 32 µg/mL
